Measured values: BindingDB's records for patent WO2025064535 (Deep Apple Therapeutics, 2025)

Experiments:
[1] = molecular target: T1, Mas-related G-protein coupled receptor member X2 (Homo sapiens, UniProt Q96LB1); experiment: MRGPRX2 Activity Assay
T1 sequence (Q96LB1 whole entry): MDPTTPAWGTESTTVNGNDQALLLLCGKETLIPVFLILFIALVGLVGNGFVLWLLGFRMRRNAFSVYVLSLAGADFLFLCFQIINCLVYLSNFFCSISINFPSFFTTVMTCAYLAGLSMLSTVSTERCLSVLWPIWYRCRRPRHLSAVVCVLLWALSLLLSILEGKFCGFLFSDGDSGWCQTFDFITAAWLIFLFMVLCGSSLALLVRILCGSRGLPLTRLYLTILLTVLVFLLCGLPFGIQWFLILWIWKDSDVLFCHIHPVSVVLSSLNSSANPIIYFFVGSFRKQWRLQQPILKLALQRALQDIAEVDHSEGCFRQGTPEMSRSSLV
Protocol: FlpIn TRex-MRGPRX2-HEK293 cells (herein TRex-MRPGRX2-HEK) stably transfected to express human MRGPRX2 were maintained at 37 °C with 5% CO2 and grown in DMEM supplemented with 10% FBS, 1% L-Glutamate, 1% penicillin/streptomycin, 100ug/mL Hygromycin B, and 15 µg/mL Blasticidin. GOI (MRGPRX2) expression was induced with 100ng/mL of Doxycycline 18-24 hours prior to experiment, in flask. On the day of experiment, cells were lifted with TripLE Express and seeded in 384-well white walled opaque bottomed, assay plates, at 8,000 cells per well in 5 µL freshly made assay buffer (HBSS, 20 mM HEPES, 0.1% BSA and 10 mM LiCl). Compounds solubilized in 100% DMSO at 30 mM were serially diluted (1:4) first in 100% DMSO, and an intermediate plate of assay buffer was used to establish a final top concentration of 30 µM (in assay plate). Final DMSO concentration was kept constant at 1% across assay plates. Cortistatin-14, at 30 mM stock concentration was solubilized in HBSS + 0.1% BSA, stored at -20°C in 5 µL aliquots and discarded after one freeze-thaw cycle. […] Antagonist equilibrium was established with 30 minutes preincubation, followed by no wash, direct addition, and stimulation of agonist for 1 hour at 37 °C / 5% CO2. IP-1 standards and HTRF detection reagents were added according to the IP-one Gq kit protocol purchased from CisBio (part number 62IPAPEJ). The plate was read on an EnVision XCite plate reader. The HTRF ratio was then calculated from raw data (channel1/channel2 ×10,000) and analyzed using either GraphPad Prism or a custom Python script to calculate IC50 using Log[Antagonist] vs. response (4 parameter) nonlinear regression.

[2] = molecular target: T1, Mas-related G-protein coupled receptor member X2; experiment: LAD2 Degranulation Assay (Protocol 2)
Protocol: LAD-2 cells were maintained at 37 °C with 5% CO2 and grown in complete StemPro-34 media supplemented with 1% L-Glutamate, 1% penicillin/streptomycin, and 250 ng/mL human SCF. 18-24 hours prior to experiment, LAD-2 cells were collected and transferred to growth media without SCF. […] For dose-response assays, compounds solubilized in 100% DMSO at 30 mM were serially diluted (1:3) first in 100% DMSO, and 2 intermediate dilutions with assay buffer were used to establish a final top concentration of 3 ^M (in assay plate). […] Final DMSO concentration was kept constant at 0.1% across plates for all assays. Cortistatin-14 at 30 mM stock concentration was solubilized in HBSS + 0.1% BSA, stored at -20°C in 5 ^L aliquots and discarded after one freeze-thaw cycle. Final concentration of agonist used in both dose-response and single point assays was 0.5 ^M, prepared in assay buffer. Antagonist equilibrium was established with 2 h preincubation, followed by no wash, direct addition, and stimulation of agonist for 30 minutes at 37 °C. For detection of ^-hexosaminidase activity, assay plates were centrifuged and 5 ^L of cell-free supernatant from each assay well was transferred to a black-walled black-bottomed 384-well plate. Substrate solution (1 mM 4-Methylumbelliferyl N-acetyl-β-D-glucosaminide in citrate buffer, pH=4.5, 15 ^l) was added to each well and plates were incubated for 1 hour at 37 °C. […] Background-subtracted data was analyzed using either GraphPad Prism or a custom Python script to calculate IC50 using either Log[Antagonist] vs. response (4 parameter) nonlinear regression (dose-response assays).

[3] = molecular target: T1, Mas-related G-protein coupled receptor member X2; experiment: LAD2 Degranulation Assay (Protocol 1)
Protocol: LAD-2 cells were maintained at 37 °C with 5% CO2 and grown in complete StemPro-34 media supplemented with 1% L-Glutamate, 1% penicillin/streptomycin, and 250 ng/mL human SCF. On the day of experiment, cells were collected by centrifugation and seeded in 384-well assay plates, at 4,000 cells per well in 10 ^l freshly made assay buffer (10 mM HEPES, 130 mM NaCl, 5 mM KCl, 1.8 mM CaCl2, 1.0 mM MgCl2, 5.6 mM glucose, 0.1% BSA, pH = 7.40). For dose-response assays, compounds solubilized in 100% DMSO at 30 mM were serially diluted (1:3) first in 100% DMSO, and 2 intermediate dilutions with assay buffer were used to establish a final top concentration of 3 ^M (in assay plate). Final DMSO concentration was kept constant at 0.1% across plates for all assays. Cortistatin-14 at 30 mM stock concentration was solubilized in HBSS + 0.1% BSA, stored at -20°C in 5 ^L aliquots and discarded after one freeze-thaw cycle. Final concentration of agonist used in both dose-response and single point assays was 1 ^M, prepared in assay buffer. Antagonist equilibrium was established with 30 minute preincubation, followed by no wash, direct addition, and stimulation of agonist for 30 minutes at 37 °C. For detection of ^-hexosaminidase activity, assay plates were centrifuged and 5 ^l of cell-free supernatant from each assay well was transferred to a black-walled black-bottomed 384-well plate. Substrate solution (1 mM 4-Methylumbelliferyl N-acetyl-β-D-glucosaminide in citrate buffer, pH=4.5, 15 ^l) was added to each well and plates were incubated for 1 hour at 37 °C. […] Background-subtracted data was analyzed using either GraphPad Prism or a custom Python script to calculate IC50 using either Log[Antagonist] vs. response (4 parameter) nonlinear regression (dose-response assays).

Row | Structure (SMILES) | IC50 [1] [nM] | IC50 [2] [nM] | IC50 [3] [nM]
1 | C[C@@H](C(=O)Nc1nc2cc3c(cc2s1)OC(F)(F)O3)N1CCC(F)(F)[C@H](c2c[nH]c(=O)c(CN)c2)C1 [WO2025064535, Compound 85] | 36 | 82 | 130
2 | C[C@@H](C(=O)Nc1nc2cc3c(cc2s1)OC(F)(F)O3)N1CCC(F)(F)[C@H](c2c[nH]c(=O)c(CO)c2)C1 [WO2025064535, Compound 89] | 30 | 66 | 215
3 | C[C@@H](C(=O)Nc1nc2cc3c(cc2s1)CCC3)N1CCC(F)(F)[C@H](c2c[nH]c(=O)c(CO)c2)C1 [WO2025064535, Compound 107] | 49 | 101 | 586
4 | C[C@H](C(=O)Nc1nc2cc3c(cc2s1)OCO3)N1CCC(F)(F)[C@@H](c2cc[n+]([O-])cc2)C1 [WO2025064535, Compound 81] | 3.7 |  | 12
5 | C[C@@H](C(=O)Nc1nc2cc3c(cc2s1)OC(F)(F)O3)N1CCC(F)(F)[C@@H](c2c[nH]c(=O)c(CO)c2)C1 [WO2025064535, Compound 88] | 1940 |  | > 3000
6 | C[C@@H](C(=O)Nc1nc2cc3c(cc2s1)OC(F)(F)O3)N1CCC(F)(F)[C@@H](c2c[nH]c(=O)c(CO)n2)C1 [WO2025064535, Compound 90] | > 17300 |  | > 3000
7 | C[C@@H](C(=O)Nc1nc2cc3c(cc2s1)OC(F)(F)O3)N1CCC(F)(F)[C@H](c2c[nH]c(=O)c(CO)n2)C1 [WO2025064535, Compound 91] | 36 | 68 | 233
